Columns and labels:
[1] = biological target: T1, E. coli BL21(DE3) lactate dehydrogenase LDH (EC 1.1.1.28), N-terminal (His)6, SEQ ID NO 2, on mixed 525 QD/NPL (Escherichia coli, UniProt P52643); type: biochemical, E. coli strain BL21(DE3); conditions: 0.75 nM 525 QD/0.5 nM NPL, ratio 2 per NP, apparent
T1 sequence (P52643 with tags, fused parts or gaps): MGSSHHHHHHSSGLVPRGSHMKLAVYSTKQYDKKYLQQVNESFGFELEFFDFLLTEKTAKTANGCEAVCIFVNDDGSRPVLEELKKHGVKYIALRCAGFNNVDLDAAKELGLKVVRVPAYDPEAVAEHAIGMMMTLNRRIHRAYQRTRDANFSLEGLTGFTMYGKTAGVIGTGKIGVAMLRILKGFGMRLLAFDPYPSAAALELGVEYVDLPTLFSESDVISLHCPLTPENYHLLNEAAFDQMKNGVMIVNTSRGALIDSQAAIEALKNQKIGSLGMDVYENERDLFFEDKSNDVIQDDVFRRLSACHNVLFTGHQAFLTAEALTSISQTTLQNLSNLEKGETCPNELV
From the text: (§1) The latter are a quasi-two-dimensional QD-like material. As noted above in the Definitions section, NP or nanomaterial is used interchangeable to refer generically to these materials while QDs and NPLs are used to specify a given type. The NP materials were surface functionalized with the zwitterionic dihydrolipoic acid derivative compact ligand 4 (CL4, see U.S. Pat. No. 8,859,284), which replace the hydrophobic ligands utilized during nanomaterial crystal growth for colloidal stability in aqueous buffers. For enzyme attachment or bioconjugation to the NPs, self-assembly was driven by metal affinity coordination of the enzyme's pendant (His)6-motifs to the QD's ZnS shell.

[2] = biological target: T2, E. coli BL21(DE3) lactate dehydrogenase LDH (EC 1.1.1.28), N-terminal (His)6, SEQ ID NO 2, assembled on 641 QDs (Escherichia coli, UniProt P52643); assay: Michaelis Menten kinetics of LDH assembled on 641 QDs; type: biochemical, E. coli strain BL21(DE3); conditions: apparent
T2 sequence (P52643 with tags, fused parts or gaps): T1 sequence (P52643 with tags, fused parts or gaps)
From the text: as §1

[3] = biological target: T3, E. coli BL21(DE3) lactate dehydrogenase LDH (EC 1.1.1.28), N-terminal (His)6, SEQ ID NO 2, assembled on 625 QDs (Escherichia coli, UniProt P52643); assay: Michaelis Menten kinetics of LDH assembled on 625 QDs; type: biochemical, E. coli strain BL21(DE3); conditions: apparent
T3 sequence (P52643 with tags, fused parts or gaps): T1 sequence (P52643 with tags, fused parts or gaps)
From the text: as §1

[4] = biological target: T4, E. coli BL21(DE3) lactate dehydrogenase LDH (EC 1.1.1.28), N-terminal (His)6, SEQ ID NO 2, assembled on 525 QDs (Escherichia coli, UniProt P52643); assay: Michaelis Menten kinetics of LDH assembled on 525 QDs; type: biochemical, E. coli strain BL21(DE3); conditions: apparent
T4 sequence (P52643 with tags, fused parts or gaps): T1 sequence (P52643 with tags, fused parts or gaps)
From the text: as §1

[5] = biological target: T5, E. coli BL21(DE3) lactate dehydrogenase LDH (EC 1.1.1.28), N-terminal (His)6, SEQ ID NO 2, free in solution (Escherichia coli, UniProt P52643); assay: Michaelis Menten kinetics of LDH free in solution; type: biochemical, E. coli strain BL21(DE3); conditions: free enzyme (ratio 0), apparent
T5 sequence (P52643 with tags, fused parts or gaps): T1 sequence (P52643 with tags, fused parts or gaps)

[6] = biological target: T6, E. coli BL21(DE3) lactate dehydrogenase LDH (EC 1.1.1.28), N-terminal (His)6, SEQ ID NO 2, assembled on NPLs (Escherichia coli, UniProt P52643); assay: Michaelis Menten kinetics of LDH assembled on NPLs; type: biochemical, E. coli strain BL21(DE3); conditions: ratio 1 LDH per NPL, apparent
T6 sequence (P52643 with tags, fused parts or gaps): T1 sequence (P52643 with tags, fused parts or gaps)
From the text: as §1

[7] = biological target: E. coli BL21(DE3) pyruvate kinase PykA (EC 2.7.1.40), N-terminal (His)6, SEQ ID NO 1, free in solution (Escherichia coli, UniProt P21599); conditions: free enzyme (ratio 0), apparent
Sequence of E. coli BL21(DE3) pyruvate kinase PykA (EC 2.7.1.40), N-terminal (His)6, SEQ ID NO 1, free in solution (P21599 whole entry, added parts left off): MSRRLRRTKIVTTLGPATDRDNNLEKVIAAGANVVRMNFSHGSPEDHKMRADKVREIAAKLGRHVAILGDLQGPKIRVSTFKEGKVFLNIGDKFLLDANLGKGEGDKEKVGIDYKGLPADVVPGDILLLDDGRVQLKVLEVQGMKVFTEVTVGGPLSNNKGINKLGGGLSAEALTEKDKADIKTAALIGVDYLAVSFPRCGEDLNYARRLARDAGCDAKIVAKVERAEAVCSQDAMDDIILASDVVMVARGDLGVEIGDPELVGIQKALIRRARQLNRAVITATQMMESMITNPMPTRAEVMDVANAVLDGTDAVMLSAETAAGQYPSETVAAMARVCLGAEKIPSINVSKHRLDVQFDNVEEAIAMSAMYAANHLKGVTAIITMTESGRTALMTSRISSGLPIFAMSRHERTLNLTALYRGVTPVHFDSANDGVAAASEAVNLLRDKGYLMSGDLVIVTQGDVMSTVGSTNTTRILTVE

[8] = biological target: E. coli BL21(DE3) pyruvate kinase PykA (EC 2.7.1.40), N-terminal (His)6, SEQ ID NO 1, on mixed 525 QD/NPL (Escherichia coli, UniProt P21599); conditions: ratio 2 enzyme per NP
Sequence of E. coli BL21(DE3) pyruvate kinase PykA (EC 2.7.1.40), N-terminal (His)6, SEQ ID NO 1, on mixed 525 QD/NPL (P21599 whole entry, added parts left off): as above
From the text: To examine the display of enzymes on mixed NP scaffolds, next examined was the individual activity of Pyka and LDH at a ratio of 2 enzyme per NP in representative samples comprising of three different ratios of 525 QD to NPL, see Table 3.

[9] = substrate: CC(=O)C(=O)O; assay: Michaelis Menten kinetics of LDH free in solution; type: biochemical, E. coli strain BL21(DE3); conditions: other: free enzyme (ratio 0), apparent, pH 8.0

CC(=O)C(=O)O [pyruvic acid] showed a VMax [1] of 53.0 ± 1 nM/s, a kcat/KM [1] of 0.019 ± 0.002 M⁻¹ s⁻¹ and a VMax ([2]; ratio 1 LDH per QD) of 8.3 ± 0.1 nM/s. It also gave a kcat ([2]; ratio 1 LDH per QD) of 3.32 ± 0.1 s⁻¹, a kcat/KM ([2]; ratio 1 LDH per QD) of 0.006 ± 0.002 M⁻¹ s⁻¹ and a VMax ([2]; ratio 2 LDH per QD) of 7.7 ± 0.3 nM/s. It also gave a kcat/KM ([2]; ratio 2 LDH per QD) of 0.0038 ± 0.0007 M⁻¹ s⁻¹, a VMax ([2]; ratio 4 LDH per QD) of 3.6 ± 0.5 nM/s and a kcat ([2]; ratio 4 LDH per QD) of 1.45 ± 0.1 s⁻¹. The kcat/KM ([2]; ratio 4 LDH per QD) was 0.0021 ± 0.001 M⁻¹ s⁻¹, the VMax ([2]; ratio 8 LDH per QD) was 2.6 ± 0.3 nM/s and the kcat ([2]; ratio 8 LDH per QD) was 1.04 ± 0.1 s⁻¹. It also gave a kcat/KM ([2]; ratio 8 LDH per QD) of 0.0013 ± 0.0003 M⁻¹ s⁻¹, a VMax ([3]; ratio 1 LDH per QD) of 69.0 ± 1 nM/s and a kcat/KM ([3]; ratio 1 LDH per QD) of 0.021 ± 0.005 M⁻¹ s⁻¹. For the same molecule, the VMax ([3]; ratio 2 LDH per QD) was 58.0 ± 3 nM/s, the kcat/KM ([3]; ratio 2 LDH per QD) was 0.023 ± 0.004 M⁻¹ s⁻¹ and the VMax ([3]; ratio 4 LDH per QD) was 49.0 ± 1 nM/s. For the same molecule, the kcat ([3]; ratio 4 LDH per QD) was 19.5 ± 0.1 s⁻¹, the kcat/KM ([3]; ratio 4 LDH per QD) was 0.018 ± 0.005 M⁻¹ s⁻¹ and the VMax ([3]; ratio 8 LDH per QD) was 52.0 ± 1 nM/s. The kcat ([3]; ratio 8 LDH per QD) was 20.7 ± 0.1 s⁻¹, the kcat/KM ([3]; ratio 8 LDH per QD) was 0.017 ± 0.005 M⁻¹ s⁻¹ and the VMax ([4]; ratio 1 LDH per QD) was 40.0 ± 6 nM/s. It also gave a kcat ([4]; ratio 1 LDH per QD) of 15.9 ± 0.4 s⁻¹, a kcat/KM ([4]; ratio 1 LDH per QD) of 0.015 ± 0.0005 M⁻¹ s⁻¹ and a VMax ([4]; ratio 2 LDH per QD) of 45.0 ± 1 nM/s. The kcat/KM ([4]; ratio 2 LDH per QD) was 0.02 ± 0.007 M⁻¹ s⁻¹, the VMax ([4]; ratio 4 LDH per QD) was 40.0 ± 1 nM/s and the kcat ([4]; ratio 4 LDH per QD) was 15.5 ± 0.1 s⁻¹. The kcat/KM ([4]; ratio 4 LDH per QD) was 0.014 ± 0.004 M⁻¹ s⁻¹, the VMax ([4]; ratio 8 LDH per QD) was 57.0 ± 1 nM/s and the kcat/KM ([4]; ratio 8 LDH per QD) was 0.015 ± 0.003 M⁻¹ s⁻¹. The kcat [5] was 13.3 s⁻¹, the kcat/KM [5] was 0.015 ± 0.007 M⁻¹ s⁻¹ and the kcat [6] was 32.3 s⁻¹.

C=C(OP(=O)(O)O)C(=O)O [PEP, phosphoenolpyruvic acid] showed a kcat [7] of 25 s⁻¹ and a kcat [8] of 13.3 s⁻¹.

B1: E. coli BL21(DE3) lactate dehydrogenase LDH (EC 1.1.1.28), N-terminal (His)6, SEQ ID NO 2, free in solution (Escherichia coli K-12) (protein)
chain: T1 sequence (P52643 with tags, fused parts or gaps)
B1 was tested, and the Km [9] was 900 ± 400 µM and the Vmax [9] was 1.98 µM/min.

— patent publication US20250197842A1, “IMPROVING ENZYMATIC CHANNELING EFFICIENCY VIA MIXED NANOPARTICLE SCAFFOLDS WITHIN SELF-ASSEMBLED NANOPARTICLE ENZYME CLUSTERS” (The Government of the United States of America, as …, priority 2023, published 2025)
